Assay results: US6897199B2, “Pharmaceutically acceptable salts of phenoxazine and phenothiazine compounds” (Dr. Reddy's Laboratories Ltd., priority 2001, dated 2005)
Structures can show the parent of a compound that is named as a salt.

Assays:
[1] = system: hypercholesterolemic rat models; experiment: Plasma triglyceride and cholesterol lowering activity in hypercholesterolemic rat models; format: in vivo, Male Sprague Dawley rats; conditions: dose 10 mg/kg orally for 3 days
Method: b) Plasma triglyceride and Cholesterol Lowering Activity in Hypercholesterolemic Rat Models
Male Sprague Dawley rats (NIN stock) were bred in DRF animal house. Animals were maintained under 12 hour light and dark cycle at 25±1° C. Rats of 180-200 gram body weight range were used for the experiment. Animals are made hypercholesterolemic by feeding 2% cholesterol and 1% sodium cholate mixed with standard laboratory chow [National Institute of Nutrition (NIN), Hyderabad, India] for 6 days. Throughout the experimental period the animals are maintained on the same diet (Petit, D., Bonnefis, M. T., Rey, C and Infante, R. Effects of ciprofibrate on liver lipids and lipoprotein synthesis in normo- and hyperlipidemic rats. Atherosclerosis. 1988.74: 215-225).
The test compounds were administered orally at a dose 0.1 to 30 mg/kg/day for 3 days. Control group is treated with vehicle alone (0.25% Carboxymethylcellulose; dose 10 ml/kg).
The blood samples were collected in fed state 1 hour after drug administration on 0 and 3 day of compound treatment. The blood was collected from the retro-orbital sinus through heparinised capillary in EDTA containing tubes. After centrifugation, plasma sample is separated for total cholesterol, HDL and triglyceride estimations. Measurement of plasma triglyceride (TG), total cholesterol (TC) and HDL are done using commercial kits (Dr. Reddy's Laboratory, Diagnostic Division, India). LDL and VLDL cholesterol were calculated from the data obtained for total cholesterol, HDL and triglyceride. The reduction of various parameters examined are calculated according to the formula given below.
Formulae for Calculation: • 1. Percent reduction in Blood sugar/triglycerides/total cholesterol were calculated according to the formula: [formula] • OC=Zero day control group value • OT=Zero day treated group value • TC=Test day control group value • TT=Test day treated group value • 2. LDL and VLDL cholesterol levels were calculated according to the formula: [formula] VLDL cholesterol in mg/dl=[Total cholesterol−HDL cholesterol−LDL cholesterol]mg/dl.

hPPARα = target: T1, hPPARα (Homo sapiens, UniProt Q07869); conditions: compound concentration 50 μM; luciferase activity, HEK-293 cells
T1 sequence (Q07869 239-466 limits assumed): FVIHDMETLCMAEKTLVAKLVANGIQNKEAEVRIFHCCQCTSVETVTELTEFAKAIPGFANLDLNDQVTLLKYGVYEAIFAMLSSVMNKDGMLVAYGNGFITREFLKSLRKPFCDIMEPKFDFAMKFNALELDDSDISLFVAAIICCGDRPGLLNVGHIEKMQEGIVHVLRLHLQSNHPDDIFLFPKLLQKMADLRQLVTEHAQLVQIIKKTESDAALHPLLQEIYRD
Method: a) Determination of hPPARα Activity
Ligand binding domain of hPPARα was fused to DNA binding domain of Yeast transcription factor GAL4 in eucaryotic expression vector. Using superfect (Qiagen, Germany) as transfecting reagent HEK-293 cells were transfected with this plasmid and a reporter plasmid harboring the luciferase gene driven by a GAL4 specific promoter. Compound was added at different concentrations after 42 hrs of transfection and incubated overnight.

Question: Which results are given for `CCO[C@@H](Cc1ccc(OCCN2c3ccccc3Oc3ccccc32)cc1)C(=O)O` [Example 3, (−)-3-[4-[2-(Phenoxazin-10-yl)ethoxy]phenyl]-2-ethoxypropanoic acid metformin salt]?
Answer: LDL ([1]; LDL cholesterol calculated from TC, HDL and TG): 46; VLDL ([1]; VLDL cholesterol calculated from TC, HDL and TG): 82; HDL ([1]; plasma HDL): 64; TC ([1]; plasma total cholesterol, percent reduction by formula of b285): 82; TG ([1]; plasma triglyceride, percent reduction by formula of b285): 47

Question: With “(−)-3-[4-[2-(Phenoxazin-10-yl)ethoxy]phenyl]-2-ethoxypropanoic acid phenylglycinol salt [Example 12]” as the compound, how does the PPARα (hPPARα) read?
Answer: Its PPARα is 3.7.
